Assay type in all cases: cell-based
One test has as its system DU-145. The experiment in a line: Cell growth inhibition assay, prostate cancer cell line DU-145. The conditions noted are these: Homo sapiens, DU-145 prostate cancer cell line. As for the experimental part:
(§1) The inhibitory effects of the compounds of the present invention against the growth of cancer cells were evaluated as shown below. The cancer cell lines including stomach cancer cell line (AGS), breast cancer cell lines (MDA-MB-231, MDA-MB-468, and BT-549), prostate cancer cell lines (LNCaP and DU-145), colon cancer cell line (HCT116), ovarian cancer cell line (SW626), liver cancer cell line (Hep3B), kidney cancer cell line (ACHN), lung cancer cell line (NCI-H23) and blood cancer cell lines (HEL92.1.7 and U266) were cultured under the protocol provided by each supplier. A medium supplemented with 10 ng/mL of IL-6 was used for LNCaP, a prostate cancer cell line, when treated with a drug. Each type of cells to be used in experiments were sub-cultured in a 96-well plate by counting the exact number of cells using Tali™ Image-based Cytometer (Life Technologies). In a 96-well plate, AGS, HCT116, and DU-145 were employed with 3,000 cells/well; NCI-H23, SW626, Hep3B, ACHN, BT-549, MDA-MB-231, HEL92.1.7, and U266 were employed with 5,000 cells/well; and LNCaP and MDA-MB-468 were employed with 10,000 cells/well. The cells were treated with the compounds listed in Examples which were diluted in various concentrations. Upon completion of the compounds treatment, AGS, HCT116, SW626, DU145, NCI-H23, Hep3B, ACHN, BT-549, LNCaP, HEL92.1.7, and U266 cells were cultured at 37° C. under 5% CO2 for from 72 to 96 hours, and MDA-MB-231 and MDA-MB-468 cells were cultured at 37° C. in air for from 72 to 96 hours. Subsequently, the cells were observed under microscope and drug precipitation and particular findings were investigated and recorded. And then, the 96-well plate was placed at room temperature for 30 minutes, added with 20 μL/well of CellTiter-Glo solution (Cat No. G7573, Promega) and shaken for 10 minutes, followed by being subjected to the measurement using PHERAstar™ microplate reader (BMG LABTECH) according to the supplier's general luminometer protocol. Wells where only culture liquid added without cell plating were used as a negative control, whereas wells where culture liquid containing 0.1% DMSO instead of the compounds listed in Examples were used as a positive control.

The next test deals with T1, STAT3 (Homo sapiens, UniProt P40763).
T1 construct: plasmid pSTAT3-TA-luc), which contains a stably operating STAT3 promoter; endogenous in cells
Description: STAT3 reporter gene assay (luciferase), LNCaP stable cell line (pSTAT3-TA-luc), IL-6 stimulation. As for the experimental part: 1-1) Experiment on the Inhibition of STAT3 Activity
A human prostate cancer cell line (LNCaP stable cell line; plasmid pSTAT3-TA-luc), which contains a stably operating STAT3 promoter, was cultured in RPMI1640 medium (Cat No. 11875, Life Technologies) containing 10% fetal bovine serum (FBS) (Cat No. SH30396, Thermo Scientific) and 150 μg/mL G-418 solution (Cat No. 04 727 894 001, Roche). The reporter gene assay using LNCaP stable cell line was performed in RPMI1640 medium containing 3% DCC-FBS without G-418 solution. LNCaP stable cells were plated in two (2) white 96-well plates with 30,000 cells/50 μL in each well. The cells were cultured at 37° C., under 5% CO2 for 24 hours, and then treated with the compounds listed in Examples which were diluted in various concentrations. Subsequently, IL-6 was added to each well with a final concentration of 10 ng/mL. Upon completion of the treatment with the compounds and IL-6, the cells were cultured at 37° C., under 5% CO2 for from 24 to 48 hours. The plates were observed under microscope and drug precipitation and particular findings were investigated and recorded.
The luciferase assay and the cell viability assay were performed respectively with one of the two plates. For the luciferase assay, the liquid media in the 96-well plate was removed, and then, 20 μL of passive cell lysis buffer was added to each well. After shaking the plate for 30 minutes, luciferase activities of each well were measured in a PHERAstar™ microplate reader (BMG LABTECH) using a luciferase assay system (Cat No. E1501, Promega). For the cell viability assay, the 96-well plate was placed at room temperature for 30 minutes, added with 20 μL/well of CellTiter-Glo solution (Cat No. G7573, Promega), and shaken for 10 minutes in order to measure cytotoxicity caused by the compounds listed in Examples with a PHERAstar™ microplate reader (BMG LABTECH). Wells without 0.1% DMSO and stimulation were used as a negative control and wells with 0.1% DMSO and stimulation were used as a positive control.
For orientation: In a reporter assay the amount or activity of a reporter protein is the signal.

The test system of another test is LNCaP. Description: Cell growth inhibition assay, prostate cancer cell line LNCaP (medium with 10 ng/mL IL-6). The conditions noted are these: Homo sapiens, medium supplemented with 10 ng/mL of IL-6, 10,000 cells/well. As for the experimental part: as §1

Bounds are passed on as bounds.

The values that follow come from US10562912B2 (C&C Research Laboratories, priority 2013, dated 2020).

T1 sequence (P40763 whole entry): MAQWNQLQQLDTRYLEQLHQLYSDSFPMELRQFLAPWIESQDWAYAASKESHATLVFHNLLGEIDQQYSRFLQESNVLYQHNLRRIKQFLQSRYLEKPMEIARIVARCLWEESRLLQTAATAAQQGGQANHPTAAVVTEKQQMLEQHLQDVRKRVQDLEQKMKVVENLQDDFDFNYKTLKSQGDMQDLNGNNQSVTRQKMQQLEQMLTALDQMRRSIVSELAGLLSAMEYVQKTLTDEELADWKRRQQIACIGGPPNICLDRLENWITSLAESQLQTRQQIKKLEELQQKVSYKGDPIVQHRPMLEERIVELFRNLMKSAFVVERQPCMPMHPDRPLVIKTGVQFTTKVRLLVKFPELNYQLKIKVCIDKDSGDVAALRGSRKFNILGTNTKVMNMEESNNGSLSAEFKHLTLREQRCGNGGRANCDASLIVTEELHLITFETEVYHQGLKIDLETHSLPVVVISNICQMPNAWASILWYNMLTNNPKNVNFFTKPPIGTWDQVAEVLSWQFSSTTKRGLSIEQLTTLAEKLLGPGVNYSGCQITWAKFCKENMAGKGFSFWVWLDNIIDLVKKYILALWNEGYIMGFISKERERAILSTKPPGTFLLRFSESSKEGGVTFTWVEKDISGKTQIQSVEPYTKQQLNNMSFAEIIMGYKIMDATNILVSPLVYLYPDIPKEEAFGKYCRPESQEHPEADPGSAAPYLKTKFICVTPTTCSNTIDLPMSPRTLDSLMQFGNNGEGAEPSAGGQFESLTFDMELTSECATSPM

Take `CC(C)Oc1cc(CN2CCS(=O)(=O)CC2)cc(C(C)(C)c2cc(Cl)cc(NC(=O)c3cc4cc(NS(C)(=O)=O)ccc4s3)c2)c1` [Example 132, N-(3-chloro-5-(2-(3-((1,1-dioxidothiomorpholino)methyl)-5-isopropoxyphenyl)propan-2-yl)phenyl)-5-(methylsulfonamido)benzo[b]thiophene-2-carboxamide]: the IC50 is 0.41 µM in the test on DU-145, 0.35 µM against STAT3 and 0.97 µM with LNCaP.
Taken in the same sequence, the figures for `CC(C)Oc1cc(CN2CCN(C(=O)N(C)C)CC2)cc(C(C)(C)c2cc(Cl)cc(NC(=O)c3cc4cc(NS(C)(=O)=O)ccc4s3)c2)c1` [Example 133, 4-(3-(2-(3-chloro-5-(5-(methylsulfonamido)benzo[b]thiophene-2-carboxamido)phenyl)propan-2-yl)-5-isopropoxybenzyl)-N,N-dimethylpiperazine-1-carboxamide] were 0.22 µM, 0.15 µM and 0.7 µM.
For `CC(C)Oc1cc(CN2CCC3(CC2)COC3)cc(C(C)(C)c2cc(Cl)cc(NC(=O)c3cc4cc(NS(C)(=O)=O)ccc4s3)c2)c1` [Example 134, N-(3-(2-(3-((2-oxa-7-azaspiro[3,5]nonan-7-yl)methyl)-5-isopropoxyphenyl)propan-2-yl)-5-chlorophenyl)-5-(methylsulfonamido)benzo[b]thiophene-2-carboxamide], in that order: 0.16 µM, 0.27 µM and 0.84 µM.
Taken in the same sequence, the figures for `CC(C)Oc1cc(CN2CCN(c3nnc(C(C)C)o3)CC2)cc(C(C)(C)c2cc(Cl)cc(NC(=O)c3cc4cc(NS(C)(=O)=O)ccc4s3)c2)c1` [Example 135, N-(3-chloro-5-(2-(3-isopropoxy-5-((4-(5-isopropyl-1,3,4-oxadiazol-2-yl)piperazin-1-yl)methyl)phenyl)propan-2-yl)phenyl)-5-(methylsulfonamido)benzo[b]thiophene-2-carboxamide] were 0.3 µM, 0.14 µM and 0.85 µM.
Consider `CC(C)Oc1cc(CN2CCN(c3noc(C(C)C)n3)CC2)cc(C(C)(C)c2cc(F)cc(NC(=O)c3cc4cc(NS(C)(=O)=O)ccc4s3)c2)c1` [Example 136, N-(3-fluoro-5-(2-(3-isopropoxy-5-((4-(5-isopropyl-1,2,4-oxadiazol-3-yl)piperazin-1-yl)methyl)phenyl)propan-2-yl)phenyl)-5-(methylsulfonamido)benzo[b]thiophene-2-carboxamide], for which the concentration for half-maximal inhibition (IC50) with DU-145 came to 0.051 µM; at STAT3, 0.059 µM; in the test with LNCaP, 0.38 µM.
Taken in the same sequence, the figures for `CC(C)Oc1cc(CN2CCOCC2)cc(C(C)(C)c2cc(F)cc(NC(=O)c3cc4cc(NS(C)(=O)=O)ccc4s3)c2)c1` [Example 137, N-(3-fluoro-5-(2-(3-isopropoxy-5-(morpholinomethyl)phenyl)propan-2-yl)phenyl)-5-(methylsulfonamido)benzo[b]thiophene-2-carboxamide] were 0.1 µM, 0.22 µM and 0.4 µM.
Taken in the same sequence, the figures for `Cn1nccc1-c1ccc(C(C)(C)c2cc(Cl)cc(NC(=O)c3cc4cc(NS(C)(=O)=O)ccc4s3)c2)cc1` [Example 159, N-(3-chloro-5-(2-(4-(1-methyl-1H-pyrazol-5-yl)phenyl)propan-2-yl)phenyl)-5-(methylsulfonamido)benzo[b]thiophene-2-carboxamide] were 0.14 µM, 0.31 µM and 0.16 µM.
For `C[S+]([O-])c1ccc(C(C)(C)c2cc(Cl)cc(NC(=O)c3cc4cc(NS(C)(=O)=O)ccc4s3)c2)cc1` (stereo not drawn) [Example 160, N-(3-chloro-5-(2-(4-(methylsulfinyl)phenyl)propan-2-yl)phenyl)-5-(methylsulfonamido)benzo[b]thiophene-2-carboxamide], in that order: over 1.1 µM, 3.3 µM and over 1.1 µM.

As a reminder, the IC50 is the concentration that gives 50% inhibition. Lower therefore signals greater potency in that assay.
